Measurements reported in article PMC3639963, “A New Class of Small Molecule Inhibitor of BMP Signaling” (PLoS ONE, 2013).

Tests used:
Experiment in all cases: Nanosyn kinase profiling
Type in all cases: biochemical
Settings in all cases: read-out: Percentage inhibition; for inhibition at 0.1 µM: 0.1 µM inhibitor; for inhibition at 1 µM: 1 µM inhibitor
DDR2 = molecular target: T1, DDR2 (Homo sapiens, UniProt Q16832)
T1 construct: purchased Nanosyn (enzymatic panel); SGC in-house recombinant human kinases (DSF panel); Invitrogen (ALK1-6)
T1 sequence (Q16832 22-855): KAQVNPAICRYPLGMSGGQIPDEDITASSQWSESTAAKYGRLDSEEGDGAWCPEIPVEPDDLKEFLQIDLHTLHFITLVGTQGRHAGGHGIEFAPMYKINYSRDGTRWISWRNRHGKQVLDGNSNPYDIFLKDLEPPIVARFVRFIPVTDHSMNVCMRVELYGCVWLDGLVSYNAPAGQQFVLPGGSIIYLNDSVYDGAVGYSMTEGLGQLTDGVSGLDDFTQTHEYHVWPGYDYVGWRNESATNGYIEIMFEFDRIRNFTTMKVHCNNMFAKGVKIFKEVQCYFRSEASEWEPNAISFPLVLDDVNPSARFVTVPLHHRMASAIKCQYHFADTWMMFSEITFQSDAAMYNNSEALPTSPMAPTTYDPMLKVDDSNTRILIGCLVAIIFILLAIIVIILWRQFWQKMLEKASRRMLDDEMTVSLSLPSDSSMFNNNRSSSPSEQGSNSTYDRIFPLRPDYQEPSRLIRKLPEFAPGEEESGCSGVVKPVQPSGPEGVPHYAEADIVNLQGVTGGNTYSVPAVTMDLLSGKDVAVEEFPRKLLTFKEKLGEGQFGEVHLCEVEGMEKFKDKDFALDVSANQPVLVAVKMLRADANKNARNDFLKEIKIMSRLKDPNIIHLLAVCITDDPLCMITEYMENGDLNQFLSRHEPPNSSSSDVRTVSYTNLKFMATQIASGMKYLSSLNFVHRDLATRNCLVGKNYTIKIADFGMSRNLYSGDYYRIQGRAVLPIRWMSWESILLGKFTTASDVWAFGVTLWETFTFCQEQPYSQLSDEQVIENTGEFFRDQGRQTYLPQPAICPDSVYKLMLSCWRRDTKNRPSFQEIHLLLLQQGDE
How it was run: (§1)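 Percent inhibition of each kinase was measured with the inhibitor at 0.1 µM and at 1 µM, as part of a 200-kinase human selectivity panel.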

PKCβ2 = molecular target: T2, PKCβ2 (Homo sapiens, UniProt P05771)
T2 construct: purchased Nanosyn (enzymatic panel); SGC in-house recombinant human kinases (DSF panel); Invitrogen (ALK1-6)
T2 sequence (P05771 1-673 isoform P05771-2): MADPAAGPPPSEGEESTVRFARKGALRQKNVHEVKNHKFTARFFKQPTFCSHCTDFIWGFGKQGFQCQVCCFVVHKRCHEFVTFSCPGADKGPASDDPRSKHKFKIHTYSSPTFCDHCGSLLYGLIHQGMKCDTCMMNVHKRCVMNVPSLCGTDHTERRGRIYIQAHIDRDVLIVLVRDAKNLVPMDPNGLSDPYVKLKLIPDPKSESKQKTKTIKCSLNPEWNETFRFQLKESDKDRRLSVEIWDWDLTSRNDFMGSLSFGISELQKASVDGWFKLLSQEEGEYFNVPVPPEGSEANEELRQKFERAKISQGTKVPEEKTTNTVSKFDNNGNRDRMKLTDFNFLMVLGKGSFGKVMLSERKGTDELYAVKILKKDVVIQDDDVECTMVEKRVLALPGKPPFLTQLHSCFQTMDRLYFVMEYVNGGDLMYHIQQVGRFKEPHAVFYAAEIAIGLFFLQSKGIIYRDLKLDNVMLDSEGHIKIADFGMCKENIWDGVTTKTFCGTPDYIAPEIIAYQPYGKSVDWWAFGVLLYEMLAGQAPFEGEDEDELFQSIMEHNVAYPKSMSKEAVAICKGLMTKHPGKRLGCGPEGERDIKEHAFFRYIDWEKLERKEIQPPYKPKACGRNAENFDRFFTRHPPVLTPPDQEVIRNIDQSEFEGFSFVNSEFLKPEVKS
How it was run: as §1

RSK2 = molecular target: T3, RSK2 (Homo sapiens, UniProt P51812)
T3 construct: purchased Nanosyn (enzymatic panel); SGC in-house recombinant human kinases (DSF panel); Invitrogen (ALK1-6)
T3 sequence (P51812 whole entry): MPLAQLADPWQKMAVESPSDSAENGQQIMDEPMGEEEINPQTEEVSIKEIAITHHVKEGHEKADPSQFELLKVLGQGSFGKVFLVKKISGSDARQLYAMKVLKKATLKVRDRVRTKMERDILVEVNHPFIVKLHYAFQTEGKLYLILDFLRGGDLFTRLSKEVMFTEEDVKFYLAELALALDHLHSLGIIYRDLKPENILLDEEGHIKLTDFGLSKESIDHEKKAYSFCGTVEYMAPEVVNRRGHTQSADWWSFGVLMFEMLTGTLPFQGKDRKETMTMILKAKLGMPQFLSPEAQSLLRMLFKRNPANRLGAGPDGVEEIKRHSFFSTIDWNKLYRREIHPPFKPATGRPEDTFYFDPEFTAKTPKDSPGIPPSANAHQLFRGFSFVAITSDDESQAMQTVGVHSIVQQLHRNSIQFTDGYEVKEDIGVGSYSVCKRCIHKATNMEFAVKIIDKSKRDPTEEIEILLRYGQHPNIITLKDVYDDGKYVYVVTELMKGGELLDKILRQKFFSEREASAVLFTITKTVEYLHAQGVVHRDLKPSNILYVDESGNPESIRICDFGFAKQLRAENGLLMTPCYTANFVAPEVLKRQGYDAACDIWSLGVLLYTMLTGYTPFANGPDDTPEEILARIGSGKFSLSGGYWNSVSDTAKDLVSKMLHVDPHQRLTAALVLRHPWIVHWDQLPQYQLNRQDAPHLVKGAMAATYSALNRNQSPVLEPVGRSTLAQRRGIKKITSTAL
How it was run: as §1

PKA = molecular target: T4, PKA (Homo sapiens, UniProt P17612)
T4 construct: purchased Nanosyn (enzymatic panel); SGC in-house recombinant human kinases (DSF panel); Invitrogen (ALK1-6)
How it was run: as §1

RET = molecular target: T5, RET (Homo sapiens, UniProt P07949)
T5 construct: purchased Nanosyn (enzymatic panel); SGC in-house recombinant human kinases (DSF panel); Invitrogen (ALK1-6)
T5 sequence (P07949 29-1114): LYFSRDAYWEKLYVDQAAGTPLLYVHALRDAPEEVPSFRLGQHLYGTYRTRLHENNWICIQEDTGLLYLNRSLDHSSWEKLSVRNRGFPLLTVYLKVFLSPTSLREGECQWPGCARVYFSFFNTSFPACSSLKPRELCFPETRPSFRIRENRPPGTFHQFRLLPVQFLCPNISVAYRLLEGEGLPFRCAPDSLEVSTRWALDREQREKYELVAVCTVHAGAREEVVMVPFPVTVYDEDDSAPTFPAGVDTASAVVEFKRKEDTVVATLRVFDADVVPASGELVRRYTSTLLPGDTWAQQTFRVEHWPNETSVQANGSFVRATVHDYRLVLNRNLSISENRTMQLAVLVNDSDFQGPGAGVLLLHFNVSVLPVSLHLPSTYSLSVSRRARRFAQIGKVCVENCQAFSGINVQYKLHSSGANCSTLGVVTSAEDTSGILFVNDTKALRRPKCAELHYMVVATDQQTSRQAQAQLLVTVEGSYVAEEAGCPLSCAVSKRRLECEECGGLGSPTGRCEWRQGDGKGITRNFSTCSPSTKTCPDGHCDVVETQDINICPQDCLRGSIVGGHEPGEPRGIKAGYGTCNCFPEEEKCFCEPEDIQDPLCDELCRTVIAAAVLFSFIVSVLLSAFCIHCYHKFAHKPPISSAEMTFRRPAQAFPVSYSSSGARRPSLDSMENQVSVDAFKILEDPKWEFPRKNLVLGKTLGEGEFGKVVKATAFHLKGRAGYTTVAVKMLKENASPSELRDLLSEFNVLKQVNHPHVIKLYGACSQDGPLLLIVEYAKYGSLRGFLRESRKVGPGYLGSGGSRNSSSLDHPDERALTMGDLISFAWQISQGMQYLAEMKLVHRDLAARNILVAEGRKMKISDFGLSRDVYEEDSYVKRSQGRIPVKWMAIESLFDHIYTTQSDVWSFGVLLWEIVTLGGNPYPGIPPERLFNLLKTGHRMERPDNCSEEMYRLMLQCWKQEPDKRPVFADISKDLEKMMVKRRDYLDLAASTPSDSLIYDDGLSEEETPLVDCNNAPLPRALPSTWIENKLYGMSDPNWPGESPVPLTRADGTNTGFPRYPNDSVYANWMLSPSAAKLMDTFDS
How it was run: as §1

PDK1 = molecular target: T6, PDK1 (Homo sapiens, UniProt O15530)
T6 construct: purchased Nanosyn (enzymatic panel); SGC in-house recombinant human kinases (DSF panel); Invitrogen (ALK1-6)
T6 sequence (O15530 1-556): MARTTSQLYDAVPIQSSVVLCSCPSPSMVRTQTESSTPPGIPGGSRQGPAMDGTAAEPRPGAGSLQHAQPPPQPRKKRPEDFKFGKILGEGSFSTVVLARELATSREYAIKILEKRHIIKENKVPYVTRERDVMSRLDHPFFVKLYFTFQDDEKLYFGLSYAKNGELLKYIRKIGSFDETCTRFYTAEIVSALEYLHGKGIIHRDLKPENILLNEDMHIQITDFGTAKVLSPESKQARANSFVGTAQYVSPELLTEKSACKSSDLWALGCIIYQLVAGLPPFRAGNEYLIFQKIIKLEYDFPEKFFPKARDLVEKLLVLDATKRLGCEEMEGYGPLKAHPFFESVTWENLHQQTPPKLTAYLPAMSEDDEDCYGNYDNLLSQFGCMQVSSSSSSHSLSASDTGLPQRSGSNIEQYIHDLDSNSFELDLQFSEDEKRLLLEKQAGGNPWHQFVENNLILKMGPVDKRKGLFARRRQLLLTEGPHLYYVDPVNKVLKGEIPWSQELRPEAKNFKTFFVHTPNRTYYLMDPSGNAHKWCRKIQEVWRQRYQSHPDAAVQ
How it was run: as §1

FGFR3 = molecular target: T7, FGFR3 (Homo sapiens, UniProt P22607)
T7 construct: purchased Nanosyn (enzymatic panel); SGC in-house recombinant human kinases (DSF panel); Invitrogen (ALK1-6)
T7 sequence (P22607 23-806): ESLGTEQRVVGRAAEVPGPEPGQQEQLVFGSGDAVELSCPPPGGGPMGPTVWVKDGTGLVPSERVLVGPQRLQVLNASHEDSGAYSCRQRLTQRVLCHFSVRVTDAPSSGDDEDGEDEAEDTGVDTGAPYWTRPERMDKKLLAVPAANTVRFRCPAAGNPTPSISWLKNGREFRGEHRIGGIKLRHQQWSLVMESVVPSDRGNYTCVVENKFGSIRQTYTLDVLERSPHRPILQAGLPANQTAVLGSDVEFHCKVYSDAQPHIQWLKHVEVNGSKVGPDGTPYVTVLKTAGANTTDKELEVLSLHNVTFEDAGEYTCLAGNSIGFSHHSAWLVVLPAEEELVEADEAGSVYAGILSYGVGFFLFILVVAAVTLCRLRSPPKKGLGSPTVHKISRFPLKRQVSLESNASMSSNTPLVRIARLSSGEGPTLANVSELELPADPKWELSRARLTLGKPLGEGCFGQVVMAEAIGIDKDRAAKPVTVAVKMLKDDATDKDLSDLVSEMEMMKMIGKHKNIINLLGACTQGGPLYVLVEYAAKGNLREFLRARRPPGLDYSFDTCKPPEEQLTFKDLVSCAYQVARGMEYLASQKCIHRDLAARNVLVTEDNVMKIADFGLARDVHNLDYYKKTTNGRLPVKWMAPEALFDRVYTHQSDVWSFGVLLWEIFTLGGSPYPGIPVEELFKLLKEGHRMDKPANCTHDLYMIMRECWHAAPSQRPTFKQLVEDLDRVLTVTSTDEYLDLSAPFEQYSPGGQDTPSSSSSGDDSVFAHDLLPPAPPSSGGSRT
How it was run: as §1

EPHB4 = molecular target: T8, EPHB4 (Homo sapiens, UniProt P54760)
T8 construct: purchased Nanosyn (enzymatic panel); SGC in-house recombinant human kinases (DSF panel); Invitrogen (ALK1-6)
T8 sequence (P54760 16-987): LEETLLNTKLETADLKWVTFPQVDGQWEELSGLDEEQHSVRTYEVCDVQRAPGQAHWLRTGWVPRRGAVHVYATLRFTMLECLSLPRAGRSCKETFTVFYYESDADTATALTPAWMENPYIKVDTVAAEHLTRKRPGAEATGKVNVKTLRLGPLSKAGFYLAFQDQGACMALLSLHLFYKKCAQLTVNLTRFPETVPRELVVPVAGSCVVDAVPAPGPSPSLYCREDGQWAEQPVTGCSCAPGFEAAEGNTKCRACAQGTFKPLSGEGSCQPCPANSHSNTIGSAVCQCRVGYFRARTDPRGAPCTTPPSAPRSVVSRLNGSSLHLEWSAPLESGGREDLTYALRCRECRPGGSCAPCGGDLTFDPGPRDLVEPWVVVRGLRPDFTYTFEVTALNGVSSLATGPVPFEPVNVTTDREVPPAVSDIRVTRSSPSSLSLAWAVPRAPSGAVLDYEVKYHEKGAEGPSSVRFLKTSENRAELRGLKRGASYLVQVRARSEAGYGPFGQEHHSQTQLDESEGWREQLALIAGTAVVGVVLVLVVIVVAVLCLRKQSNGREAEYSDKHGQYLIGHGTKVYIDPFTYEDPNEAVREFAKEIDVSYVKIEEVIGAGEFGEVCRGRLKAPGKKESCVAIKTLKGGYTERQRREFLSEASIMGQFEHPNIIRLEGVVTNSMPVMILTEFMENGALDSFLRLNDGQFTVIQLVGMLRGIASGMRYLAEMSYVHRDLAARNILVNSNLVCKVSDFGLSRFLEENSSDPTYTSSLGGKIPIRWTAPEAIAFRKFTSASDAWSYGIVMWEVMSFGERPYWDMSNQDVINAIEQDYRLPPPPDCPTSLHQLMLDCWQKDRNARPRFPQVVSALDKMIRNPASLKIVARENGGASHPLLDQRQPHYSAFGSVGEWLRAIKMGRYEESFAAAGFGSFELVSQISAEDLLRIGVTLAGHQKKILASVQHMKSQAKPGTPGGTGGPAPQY
How it was run: as §1

Structure (SMILES) | inhibition at 0.1 µM (DDR2) [%] | inhibition at 1 µM (DDR2) [%] | inhibition at 0.1 µM (PKCβ2) [%] | inhibition at 1 µM (PKCβ2) [%] | inhibition at 0.1 µM (RSK2) [%] | inhibition at 1 µM (RSK2) [%] | inhibition at 0.1 µM (PKA) [%] | inhibition at 1 µM (PKA) [%] | inhibition at 0.1 µM (RET) [%] | inhibition at 1 µM (RET) [%] | inhibition at 0.1 µM (PDK1) [%] | inhibition at 1 µM (PDK1) [%] | inhibition at 0.1 µM (FGFR3) [%] | inhibition at 1 µM (FGFR3) [%] | inhibition at 0.1 µM (EPHB4) [%] | inhibition at 1 µM (EPHB4) [%]
COc1cc(-c2cc(-c3cccc(O)c3)cnc2N)cc(OC)c1OC [K02288, 3-[6-amino-5-(3,4,5-trimethoxy-phenyl)-pyridin-3-yl]-phenol] | 0 | 11 | 0 | -1 | 0.8 | 2.2 | 0.3 | 6.1 | 2.1 | 3.9 | 0 | 0.5 | -2 | 0.2 | 0 | 5.9
c1ccc2c(-c3cnn4cc(-c5ccc(N6CCNCC6)cc5)cnc34)ccnc2c1 [LDN-193189] | 5.5 | 27 | 1 | 1.8 | 1.2 | 5.4 | 1.4 | 2.1 | 4 | 16 | 1.1 | 1.9 | 5 | 16 | -1 | 6.6
